{
  "source": "patent US7078499B2",
  "about": "“Nucleotide analogues comprising a reporter moiety and a polymerase enzyme blocking moiety” (GE Healthcare UK Limited, priority 2000, dated 2006)",
  "molecular_target": "T1, leucine aminopeptidase (Sus scrofa, UniProt P15145)",
  "T1 construct": "purchased Sigma L0632",
  "T1 sequence (P15145 whole entry)": "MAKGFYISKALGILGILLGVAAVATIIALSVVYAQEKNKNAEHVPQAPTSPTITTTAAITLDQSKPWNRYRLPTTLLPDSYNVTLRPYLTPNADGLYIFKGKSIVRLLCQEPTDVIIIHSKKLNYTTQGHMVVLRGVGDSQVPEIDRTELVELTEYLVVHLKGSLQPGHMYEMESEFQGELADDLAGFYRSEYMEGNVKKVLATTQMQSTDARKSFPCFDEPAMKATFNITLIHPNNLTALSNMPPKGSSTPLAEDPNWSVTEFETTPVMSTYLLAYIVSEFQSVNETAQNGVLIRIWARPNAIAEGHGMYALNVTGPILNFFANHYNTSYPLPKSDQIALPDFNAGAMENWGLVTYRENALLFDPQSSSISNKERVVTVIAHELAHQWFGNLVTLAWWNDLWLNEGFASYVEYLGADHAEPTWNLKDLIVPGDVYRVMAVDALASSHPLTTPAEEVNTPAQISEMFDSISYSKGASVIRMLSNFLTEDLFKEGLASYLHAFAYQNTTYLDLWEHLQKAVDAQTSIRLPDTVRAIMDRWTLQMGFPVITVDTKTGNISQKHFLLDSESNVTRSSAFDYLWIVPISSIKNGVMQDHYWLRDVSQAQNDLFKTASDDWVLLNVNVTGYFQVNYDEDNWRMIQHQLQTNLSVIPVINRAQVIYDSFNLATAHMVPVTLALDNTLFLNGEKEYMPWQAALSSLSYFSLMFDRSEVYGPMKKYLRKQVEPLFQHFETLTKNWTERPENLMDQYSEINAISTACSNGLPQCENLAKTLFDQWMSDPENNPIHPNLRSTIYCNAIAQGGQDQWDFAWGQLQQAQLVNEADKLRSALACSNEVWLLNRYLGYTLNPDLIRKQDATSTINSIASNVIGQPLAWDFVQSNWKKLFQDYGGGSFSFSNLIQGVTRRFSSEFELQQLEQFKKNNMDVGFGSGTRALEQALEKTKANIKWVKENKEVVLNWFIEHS",
  "test": "Enzyme cleavage of 4′ blocking group by leucine aminopeptidase",
  "assay_type": "biochemical",
  "details": "0.25 units leucine aminopeptidase, 37° C., 47 mM sodium phosphate pH 7.2, 3.3% methanol",
  "method": "1 mg of 4′-C-(N-Leucylaminomethyl)thymidine (21) is incubated at 37° C. in 47 mM sodium phosphate pH 7.2 with 3.3% methanol and 0.25 units leucine aminopeptidase (Sigma L0632), to a final volume of 200 ul.\nThe products resulting from a), b) or c) above are analysed by thin layer chromatography using reverse phase plates with 10% acetonitrile in water or by electrospray mass spectrometry. Successful cleavage reactions yield nucleosides running concurrently with 4′-aminomethylthymidine which is used as a standard.",
  "data": [
    {"compound": "Cc1cn([C@H]2C[C@H](O)[C@](CO)(CNC(=O)[C@@H](N)CC(C)C)O2)c(=O)[nH]c1=O", "note": "[compound (21), 4′-C-(N-Leucylaminomethyl)thymidine]", "values": [
      {"measurement": "cleavage of 4′ blocking group (mass spectrometric detection of daughter ion mass 242)", "value": "enzyme induced cleavage of the amino acid"}
    ]}
  ]
}
